Assay results taken from ChEMBL document CHEMBL4145621, “4-Substituted Benzenesulfonamides Incorporating Bi/Tricyclic Moieties Act as Potent and Isoform-Selective Carbonic Anhydrase II/IX Inhibitors” (J Med Chem, 2018).

Tests used:
Carbonic anhydrase 9 = Carbonic anhydrase 9 (Homo sapiens, UniProt Q16790); assay: Inhibition of recombinant human CA9 preincubated for 15 mins by phenol red dye-based stopped-flow CO2 hydration assay
Carbonic anhydrase 1 = Carbonic anhydrase 1 (Homo sapiens, UniProt P00915); assay: Inhibition of recombinant human cytosolic CA1 preincubated for 15 mins by phenol red dye-based stopped-flow CO2 hydration assay
Chain of Carbonic anhydrase 1 (P00915 whole entry): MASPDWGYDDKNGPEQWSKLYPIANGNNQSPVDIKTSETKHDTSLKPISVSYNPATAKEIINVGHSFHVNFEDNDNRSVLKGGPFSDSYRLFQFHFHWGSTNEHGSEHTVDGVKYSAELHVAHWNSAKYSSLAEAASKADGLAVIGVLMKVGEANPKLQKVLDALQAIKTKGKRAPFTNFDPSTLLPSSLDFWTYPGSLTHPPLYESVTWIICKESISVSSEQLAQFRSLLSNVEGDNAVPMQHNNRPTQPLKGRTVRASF

Structure (SMILES) | Ki (Carbonic anhydrase 9) | Ki (Carbonic anhydrase 1)
Cc1ncc2c(n1)CCc1cnn(-c3ccc(S(N)(=O)=O)cc3)c1-2 | 7 nM | 
CC1(C)CC(=O)c2cnc(Nc3ccc(S(N)(=O)=O)cc3)nc2C1 | 0.89 nM | 
NS(=O)(=O)c1ccc(-n2ncc3c2CC(c2ccccc2)CC3=O)cc1 (stereo not given) | 0.73 nM | 
NS(=O)(=O)c1ccc(-n2ncc3c2-c2cncnc2CC3)cc1 | 0.57 nM | 
CC1(C)CC(=O)c2cnn(-c3ccc(S(N)(=O)=O)cc3)c2C1 | 0.88 nM | 
NS(=O)(=O)c1ccc(Nc2ncc3c(n2)CC(c2ccccc2)CC3=O)cc1 (stereo not given) | 0.79 nM | 
NS(=O)(=O)c1ccc(-n2ncc3c2-c2cnc(-c4ccccc4)nc2CC3)cc1 | 7.3 nM | > 10000 nM
NS(=O)(=O)c1ccc(Nc2ncc3c(n2)CCCC3=O)cc1 | 0.55 nM | 
NS(=O)(=O)c1ccc(-n2ncc3c2CCCC3=O)cc1 | 5.2 nM | 
